# Experimental data as given in patent US20190112580A1, “METHODS FOR TREATING CO[…] AND RELATED CULTURED CELLS” (priority 2017, published 2019).
# Columns and labels:
# [1] = system: CpG island located in the promoter region of the human ITGB1 gene; assay: Promoter methylation PCR of ITGB1 CpG island; assay type: cell-based; details: 5 μM, 24-hour treatment in proliferation medium before differentiation
# Protocol: Myoblast cell preparations from CP and TD study subjects were exposed to 5 μM of the DNA methyltransferase inhibitor 5-AZA in proliferation medium. 5-AZA was introduced while the myoblast cell preparations were being developed in the high-serum medium, once the myoblast cell preparations were at about 70% cell confluence by visual inspection. The myoblast cell preparations each were cultured in a high-serum medium in the presence of 5 μM of 5-AZA for 24 hours. The myoblast cell preparations then had the 5-AZA washed off by switching the myoblast cell preparations each to a low-serum medium.
# Myoblasts were seeded at 50,000 cells/well, at approximately 13,000 cells/cm^2, in a 12-well plate and maintained in the same proliferation medium as described in Example 1. The cells were allowed to proliferate at 37° C. and 5% CO2 until they reach up to 50-80% cell confluence by visual inspection. The proliferating myoblasts are then treated with 5 μM 5-AZA (Sigma-Aldrich) for 24 hours to induce DNA hypomethylation before differentiation. 5-AZA was obtained from a 10 uM stock solution diluted 1:2000. In a 2000 mL well, 1 mL of 5 μM 5-AZA was used. […]
# The PCR amplification curves or the intensity of the amplified product in the agarose gel following electrophoresis may be used to quantify the levels of DNA methylation for a specific promoter region. […]
# [2] = system: CP and TD myoblast preparations; assay: Cell doubling time, xCELLigence RTCA DP; assay type: cell-based, human; details: 5 μM, 24 hours; FIG. 9B
# Protocol: FIG. 9B. A cell impedance-measuring xCELLigence RTCA DP instrument was used to quantify rates of “cell doubling time” (a measurement of cell proliferation) in CP and TD myoblast preparations, treated and non-treated with 5-AZA, as illustrated in FIG. 9B. Proliferating myoblasts were treated with 5 μM 5-AZA (Sigma-Aldrich) for 24 hours to induce DNA hypomethylation. Other cell preparations were not treated with 5-AZA to serve as a control. Following treatment, myoblasts were harvested from exponential growth phase cultures by a standardized detachment procedure using 0.05% Trypsin-EDTA and counted. […] Plates were locked in the RTCA DP device in the incubator and the impedance value of each well was automatically monitored by the xCELLigence system and expressed as a Cell Index value (CI). […] CI was recorded every 15 min for the entirety of the period. Cell doubling time was calculated from the exponential phase of the growth curve generated by the CI values using the supplied RTCA software.
# A cell impedance-measuring xCELLigence RTCA DP instrument was used to quantify rates of “cell doubling time” (a measurement of cell proliferation) in CP and TD myoblast preparations, treated and non-treated with 5-AZA, as illustrated in FIG. 9B. […] Following treatment, myoblasts were harvested from exponential growth phase cultures by a standardized detachment procedure using 0.05% Trypsin-EDTA and counted. […]
compound,measurement,setting,value
"Nc1ncn([C@@H]2O[C@H](CO)[C@@H](O)[C@H]2O)c(=O)n1 [5-AZA, 5-azacytidine]",DNA methylation of the CpG island in the ITGB1 promoter region,[1],sufficient to cause hypomethylation of the CpG island in the ITGB1 promoter region
same,cell doubling time,[2],resulted in similar myoblast cell doubling times between CP and TD myoblasts
